“And” between values parts separate entries of the source, which are not always exact repeats. Equal entries are not always repeated. Where two headings read alike, the source gives them in different places.

The record followed here is patent US9834534B2, “Neuraminidase inhibitor compounds, compositions and methods for the use thereof in anti-viral treatments” (THE UNIVERSITY OF BRITISH COLUMBIA, priority 2009, dated 2017).

Data set [1] concerns the target influenza sialidase (subtype N9) (Influenza A virus, UniProt P03472). The experiment in a line: biochemical. It counts as biochemical.
In data set [2] the test system is influenza A/Brisbane/10/2007 (H3N2). Description: microbe, parasite or virus in culture. To be noted: for minimal effective concentration: Influenza A virus, H3N2, MDCK, read-out: Cytoprotective effect. It counts as cell-based, influenza A virus.
Data set [3] relates to influenza A/Denver/1/57 (H1N1). The experiment in a line: microbe, parasite or virus in culture. The format is cell-based, influenza A virus. The following applies: for minimal effective concentration: Influenza A virus, H1N1, MDCK, read-out: Cytoprotective effect.
For data set [4], the system named is influenza B/HongKong/5/72. The experiment in a line: microbe, parasite or virus in culture. It counts as cell-based, influenza B virus. The following applies: for minimal effective concentration: Influenza B virus, MDCK, read-out: Cytoprotective effect.
In data set [5] the test system is influenza B/Florida/04/06. It counts as cell-based. The following applies: for Relative activity: relative to Zanamivir.
The subject of another data set is MDCK cells. The following applies: dog.
Data set [6] has as its system influenza A virus, A/HK/1/68 (H3N2). On the set-up: species or system Balb/C mice (Mus musculus). The following applies: mouse, in vivo.
For data set [7], the system named is B/Florida wt (B/Florida/4/2006). Description: microbe, parasite or virus in culture. It counts as cell-based. The following applies: Influenza B virus, read-out: IC50 B/Florida wt.
The subject of another data set is Fukui H3N2 wt. The experiment in a line: microbe, parasite or virus in culture. It counts as cell-based. The following applies: Influenza A virus, H3N2, read-out: IC50 Fukui H3N2 wt.
In the next data set the test system is sH1N1/01 wt. Description: microbe, parasite or virus in culture. To be noted: Influenza A virus, read-out: IC50 sH1N1/01 wt. It counts as cell-based.
A further data set deals with B/Perth wt. Description: microbe, parasite or virus in culture. The format is cell-based. The following applies: Influenza B virus, read-out: sensitivity to inhibitors, B/Perth wt.
The conditions of data set [8]: Balb/C, mouse, in vivo, 1 mg/kg.
For data set [9] the following is noted: 1 mg/kg.
The next data set concerns the target H1N1 OsR (Influenza A virus (H1N1), UniProt Q289M4).
The nature of another data set: in vivo. The following applies: Balb/C, mouse, 1 mg/kg; for half-life: T1/2.
The test system of data set [10] is Sol Isl sH1N1 wt (A/Solomon Islands/3/2006). Description: microbe, parasite or virus in culture. It counts as cell-based, influenza A virus. The following applies: read-out: IC50 Sol Isl sH1N1 wt.
Data set [11] deals with Auckland pH1N1 wt (A/Auckland/3/2009). The experiment in a line: microbe, parasite or virus in culture. The format is cell-based. To be noted: Influenza A virus, read-out: IC50 Auckland pH1N1 wt.
A further data set has as its system sH1N1/08 wt. The experiment in a line: microbe, parasite or virus in culture. The format is cell-based. To be noted: Influenza A virus, read-out: IC50 sH1N1/08 wt.

Sequence of influenza sialidase (subtype N9) (P03472 whole entry, looked up): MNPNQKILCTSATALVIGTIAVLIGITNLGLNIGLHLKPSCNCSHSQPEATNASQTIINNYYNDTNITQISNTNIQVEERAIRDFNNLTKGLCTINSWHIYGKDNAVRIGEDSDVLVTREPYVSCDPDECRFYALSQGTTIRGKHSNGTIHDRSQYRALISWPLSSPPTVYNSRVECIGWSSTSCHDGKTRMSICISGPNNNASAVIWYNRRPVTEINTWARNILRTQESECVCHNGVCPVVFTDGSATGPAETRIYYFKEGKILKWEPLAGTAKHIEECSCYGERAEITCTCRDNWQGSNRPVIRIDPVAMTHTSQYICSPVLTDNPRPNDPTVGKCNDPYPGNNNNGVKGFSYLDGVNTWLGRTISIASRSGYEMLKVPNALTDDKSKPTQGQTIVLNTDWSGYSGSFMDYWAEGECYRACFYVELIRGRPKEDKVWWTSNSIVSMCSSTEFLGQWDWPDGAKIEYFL
Sequence of H1N1 OsR (Q289M4 whole entry, looked up): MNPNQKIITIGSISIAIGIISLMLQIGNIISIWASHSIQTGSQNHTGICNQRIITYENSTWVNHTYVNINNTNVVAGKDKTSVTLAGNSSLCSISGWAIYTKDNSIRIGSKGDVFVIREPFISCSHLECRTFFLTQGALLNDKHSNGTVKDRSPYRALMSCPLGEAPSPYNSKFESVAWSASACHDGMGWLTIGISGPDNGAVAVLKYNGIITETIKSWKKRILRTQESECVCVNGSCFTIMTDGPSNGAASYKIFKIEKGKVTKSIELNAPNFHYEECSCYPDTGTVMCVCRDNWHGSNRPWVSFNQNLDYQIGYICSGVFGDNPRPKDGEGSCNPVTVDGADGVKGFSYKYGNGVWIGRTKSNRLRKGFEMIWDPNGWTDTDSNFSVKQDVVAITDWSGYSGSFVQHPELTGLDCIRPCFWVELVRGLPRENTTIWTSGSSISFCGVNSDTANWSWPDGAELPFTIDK

`CC(=O)N[C@@H]1C(NCc2ccccc2)C(F)[C@](F)(C(=O)O)OC1[C@H](O)[C@H](O)CO` (stereo partly drawn) [C4 Bn]: in data set [1] (30° C., pH 7.6), binding was characterised by a dissociation constant (Kd) of 306 µM, the Ki amounted to 4.08 µM and the khyd amounted to 0.0025 min⁻¹. In [1] (pH 7.6), this compound had a ki/Kd of 0.61 min⁻¹ mM⁻¹.

As to `CCOC(=O)[C@]1(F)OC([C@H](O)[C@H](O)CO)[C@H](NC(C)=O)C(N)C1F` (stereo partly drawn) [Compound 5, Ethyl (2R,3R)-4-Amino-2,4-dideoxy-2,3-difluorosialylate], the Relative activity in data set [2] was 36.4 and 48.6; in data set [3] it was 0.009; in data set [4] it was 2.27; in data set [5] (Replicate 1) it was 7.7; in data set [5] (Replicate 2), 3.1. Besides, the minimal effective concentration in data set [2] stood at 0.0076 µg/mL; in data set [3] it was 0.488 µg/mL; in data set [4], 0.977 µg/mL. Moreover, the Cytoprotective effect in [5] (Replicate 1) and in data set [5] (Replicate 2) was 290 ng/mL each time. Further, in the data set on MDCK cells, the Relative toxicity is on record as 4.5. This compound registered a Toxicity with MDCK cells of 125.0 µg/mL.

With `CCNC1C(F)[C@](F)(C(=O)O)OC([C@H](O)[C@H](O)CO)[C@@H]1NC(C)=O` (stereo partly drawn) [Compound 7, (2R,3R)-4-(N-Ethyl) amino-2,4-dideoxy-2,3-difluorosialic acid], in data set [1], the “half time for the full inactivation of the sialidase” value (from here on “half time for the full inactivation”) is reported as “ca. 10 min”. Moreover, the Kd in data set [1] (30° C., pH 7.6) stood at 14 µM. Moreover, in data set [1] (pH 7.6), the ki/Kd was 4.1 min⁻¹ mM⁻¹. The values for the Cytoprotective effect in data set [2], in data set [5] (Replicate 1) and in data set [5] (Replicate 2) were 61.0 ng/mL, 3267 ng/mL and 3267 ng/mL, respectively. In addition, the minimal effective concentration in data set [2] was determined as 0.122 µg/mL; in data set [3] it was 3.91 µg/mL; in [4] it was 3.91 µg/mL. Further, the Relative activity in data set [3] is 0.001; in data set [4], 0.57; in data set [5] (Replicate 1), 0.67; in data set [5] (Replicate 2), 0.27. This compound had a Relative toxicity in the data set on MDCK cells of 72.7. The compound also registered a Toxicity in the data set with MDCK cells of 7.8 µg/mL.

Turning to `CC(=O)N[C@@H]1C(N=[N+]=[N-])C(F)[C@](F)(C(=O)O)OC1[C@H](O)[C@H](O)CO` (stereo partly drawn) [Compound 8, (2R,3R)-4-Azido-2,4-dideoxy-2,3-difluorosialic acid], in data set [1] (4° C.), the Kd was determined as 240 µM; the “fold lower kinetic value (ki/Kd) than 23DFSA” value was found to be 26 fold; the ki/Kd was 7.5 and 7.5^b min^−1mM^−1. For the same compound, in [2], the Relative activity is on record as 2.7 and the minimal effective concentration was 0.104 µg/mL. In the data set on MDCK cells, this compound displayed a Relative toxicity of 10.6 and a Toxicity of 53.4 µg/mL.

With `CC(=O)N[C@@H]1C(N)C(F)[C@](F)(C(N)=O)OC1[C@H](O)[C@H](O)CO` (stereo partly drawn) [Compound 9, (2R,3R)-4-Amino-2,4-dideoxy-2,3-difluorosialylamide], in [1], the “half time for the full inactivation” value is listed as “ca. 10 min”. In data set [1] (30° C., pH 7.6), the Kd is 1020 µM. Also, the ki/Kd in [1] (pH 7.6) turned out to be 0.34 min⁻¹ mM⁻¹. Further, in data set [2], the Relative activity was 2.4 and the minimal effective concentration worked out at 0.118 µg/mL. In data set [3], the Relative activity came to 0.001 and the minimal effective concentration was determined as 3.76 µg/mL. For the same compound, in data set [4], the Relative activity came out at 0.15 and the minimal effective concentration was 15.1 µg/mL. Besides, in the data set on MDCK cells, the Relative toxicity was 75.5 and the Toxicity amounted to 7.5 µg/mL.

`CC(=O)NC1C(F)[C@](F)(C(=O)O)OC([C@H](O)[C@H](O)CO)[C@@H]1NC(C)=O` (stereo partly drawn) [Compound 11, (2R,3R)-4-(N-Acetyl) amino-2,4-dideoxy-2,3-difluorosialic acid]: the “half time for the full inactivation” value in [1] is recorded as “ca. 10 min”. For the same compound, binding in [1] (30° C., pH 7.6) was put at a Kd of 397 µM. The compound further gave a ki/Kd in data set [1] (pH 7.6) of 0.53 min⁻¹ mM⁻¹. Also, in [2], the Relative activity stood at 0.2 and the minimal effective concentration amounted to 1.6 µg/mL. In the data set with MDCK cells, this compound registered a Relative toxicity of 5.6 and a Toxicity of 102.3 µg/mL.

Take `CC(=O)N[C@@H]1C(NC(=N)N)C(F)[C@](F)(C(=O)O)OC1[C@H](O)[C@H](O)CO` (stereo partly drawn) [Compound 12, (2R,3R)-4-Guanyl-2,4-dideoxy-2,3-difluorosialic acid]: in data set [1], the “half time for the full inactivation” value was “ca. 10 min”. In addition, in [1], the “half time for the full reactivation of the inactivated sialidase” value was found to be 6.7 h. The compound also showed a Kd in data set [1] (30° C., pH 7.6) of 9 µM. In addition, the Ki in [1] (30° C., pH 7.6) was 0.07 µM and 0.0704 µM. This compound returned a khyd in [1] (30° C., pH 7.6) of 0.0017 min⁻¹. The compound further had a Cytoprotective effect in data set [2] of 74 ng/mL. Also, the “survival compared to the untreated control group” value in data set [6] is “significantly extended”. Besides, the “% weight loss mean +/− SD” value in data set [6] (1 mg/kg) is listed as 10.75 +/− 4.87%; in [9] (mouse, in vivo) it was 4.72 +/− 2.78%. Further, the IC50 in [7] amounted to 0.0066 µM; in the data set on Fukui H3N2 wt, 2010 µM; in the data set on sH1N1/01 wt, 0.115 µM; in the data set with B/Perth wt, 0.054 µM. In addition, the Toxicity in the data set with MDCK cells worked out at 0.9 µg/mL. Moreover, the Cinitial in data set [8] came to 4954 ng/mL; in data set [8] (iv) it was 9480 ng/mL. The “number of animals remaining” value in data set [9] (n = 5) came out at 5. Moreover, the “Half life for reactivation” value at H1N1 OsR turned out to be 116 h. This compound came in with a ki on H1N1 OsR (pH 7.6) of 0.075 ± 0.002 min⁻¹. For the same compound, the half-life in “in vivo” (inhaled or intranasal) is 17.3 min; in “in vivo” (iv), 8.3 min.

Regarding `CCOC(=O)[C@]1(F)OC([C@H](O)[C@H](O)CO)[C@H](NC(C)=O)C(NC(=N)N)C1F` (stereo partly drawn) [Compound 13, Ethyl (2R,3R)-4-Guanyl-2,4-dideoxy-2,3-difluorosialylate], in [2], the Relative activity is 6.3 and 8.3; the minimal effective concentration was found to be 0.0444 µg/mL. In data set [3], the Relative activity stood at 0.006 and the minimal effective concentration was determined as 0.71 µg/mL. Further, in data set [4], the Relative activity came out at 3.13 and the minimal effective concentration was determined as 0.71 µg/mL. Moreover, in the data set with MDCK cells, the Relative toxicity was determined as 400.0 and the Toxicity worked out at 1.4 µg/mL.

As for `CC(=O)N[C@@H]1C(O)C(F)[C@](F)(C(=O)O)OC1[C@H](O)[C@H](O)CO` (stereo partly drawn) [Compound 23DFSA, 2,3-Difluorosialic acid, reference compound], the ki/Kd in [1] (4° C.) is 196 and 196^b min^−1mM^−1. In addition, in data set [3], the Relative activity came out at 0.001 and the minimal effective concentration came out at 4.26 µg/mL. For the same compound, in data set [4], the Relative activity is given as 0.07 and the minimal effective concentration stood at 34.1 µg/mL.

Take `CCOC(=O)C1=C[C@@H](OC(CC)CC)[C@H](NC(C)=O)[C@@H](N)C1` [Oseltamivir]: the IC50 in data set [7] stood at 0.0226 µM; in data set [10] (Influenza A virus) it was 0.001 µM; in [11] it was 0.0002 µM; in the data set with Fukui H3N2 wt, 1.7 µM; with sH1N1/01 wt, 0.0031 µM; in the data set on sH1N1/08 wt, 0.003 µM.

As for `CC(=O)N[C@H]1[C@H]([C@H](O)[C@H](O)CO)OC(C(=O)O)=C[C@@H]1N=C(N)N` [Zanamivir, reference compound], the Cytoprotective effect is 369.9 ng/mL in data set [2], 2219 ng/mL in [5] and 887 ng/mL in [5] (Replicate 2). Further, the Relative activity in [2], in data set [3], in data set [4], in data set [5] (Replicate 1) and in data set [5] (Replicate 2) was 1.0 each time. In addition, the “survival compared to the untreated control group” value in data set [6] is on record as “significantly extended”. Besides, the “% weight loss mean +/− SD” value was 16.73 +/− 2.62% in [6] (0.1 mg/kg) and 12.24 +/− 2.34% in [6] (1 mg/kg). Besides, the IC50 in data set [10] came to 0.0022 µM; in data set [11] it was 0.0006 µM; in the data set with Fukui H3N2 wt, 3.8 µM; with sH1N1/01 wt, 0.0019 µM; with sH1N1/08 wt, 0.001 µM. This compound also showed a Relative toxicity in the data set with MDCK cells of 1.0. Further, the Toxicity in the data set with MDCK cells was 568 µg/mL. Moreover, in [8] (inhaled or intranasal), the “AUC(Lung) (Zanamivir/DFSA-4Gu)” value was determined as 1.07. The compound further gave an AUC in the data set “in vivo” (inhaled or intranasal) of 4230 ng·h/mL. The half-life in the data set “in vivo” (inhaled or intranasal) is 19.1 min.
